This is an account of results in ChEMBL document CHEMBL3997762 (Medchemcomm, 2016).

Structures are written as SMILES. Calls of active or inactive are those of the source. The rule behind the calls is not given here.

For data set [1], the system named is SGC-7901. Nature of the data set: Cell cycle arrest in human SGC7901 cells assessed as decrease in G1 phase at >20 uM after 24 hrs by propidium iodide staining based flow cytometry. It is filed as functional. On the technique in general: A flow cytometer gives signals particle by particle.
Data set [2] has as its system SGC-7901. Nature of the data set: Induction of ROS production in human SGC7901 cells at 5 to 10 uM after 48 hrs by MitoTracker Red CM-H2-XRos dye based flow cytometry. It is filed as functional, cell-based.
Data set [3] is described as follows: Stability of the compound in DMEM in presence of FBS by fluorescence assay.
Data set [4] has as its system SGC-7901. The data set is described as follows: Cytotoxicity against human SGC7901 cells assessed as effect on cell viability at 50 uM after 48 hrs by MTT assay relative to control. It counts as functional.
Data set [5] has as its system SGC-7901. The data set is described as follows: Cytotoxicity against human SGC7901 cells assessed as effect on cell viability at 10 uM after 48 hrs by MTT assay relative to control. It counts as functional. In general terms: Tetrazolium dyes change colour on reduction, which living cells bring about.
Data set [6] can be described thus: Drug uptake in human SGC7901 cells at 5 uM after 4 hrs by flow cytometry relative to control. It is filed as ADME, cell-based. Conditions: sgc-7901, 4 h.
Data set [7] is described as follows: Drug uptake in human SGC7901 cells at 5 uM after 48 hrs by flow cytometry relative to control. It is filed as ADME, cell-based. The note with it: sgc-7901, 48 h.
For data set [8], the system named is GES1. Nature of the data set: Cytotoxicity against human GES-1 cells assessed as effect on cell viability up to 100 uM after 48 to 72 hrs by MTT assay. It counts as cell-based.
Data set [9] has as its system SGC-7901. The data set is described as follows: Induction of ROS production in human SGC7901 cells at 5 to 20 uM after 48 hrs by DHE dye based flow cytometry. It is filed as functional, cell-based.
The test system of data set [10] is GES1. The data set is described as follows: Cytotoxicity against human GES-1 cells assessed as effect on cell viability at 50 uM after 48 hrs by MTT assay relative to control. It counts as cell-based. Conditions: ges1, 48 h.
Data set [11] concerns SGC-7901. The data set is described as follows: Cell cycle arrest in human SGC7901 cells assessed as accumulation at G1 phase at <20 uM after 24 hrs by propidium iodide staining based flow cytometry. It is filed as functional.
For data set [12], the system named is SGC-7901. The data set is described as follows: Induction of apoptosis in human SGC7901 cells assessed as decrease in nonapoptotic cells after 48 hrs by Annexin V/[…] staining-based flow cytometric method. It counts as functional, cell-based.
Data set [13] is described as follows: Drug uptake in human SGC7901 cells at 5 uM after 24 hrs by flow cytometry relative to control. It counts as ADME, cell-based. Conditions: sgc-7901, 24 h.
Data set [14] concerns SGC-7901. Nature of the data set: Induction of apoptosis in human SGC7901 cells after 48 hrs by Annexin V/[…] staining-based flow cytometric method. It counts as functional, cell-based.
Data set [15] concerns SGC-7901. The data set is described as follows: Induction of apoptosis in human SGC7901 cells assessed as decrease in viable cells after 48 hrs by Annexin V/[…] staining-based flow cytometric method. It counts as functional, cell-based.
Data set [16] can be described thus: Drug localization in mitochondria of human MCF7 cells at 5 uM after 24 hrs by MitoTracker Red CM-H2-XRos/Hoechst 33342 dye based confocal fluorescence microscopic analysis. It is filed as ADME.
Data set [17] has as its system SGC-7901. The data set is described as follows: Cell cycle arrest in human SGC7901 cells assessed as accumulation at S phase at >20 uM after 24 hrs by propidium iodide staining based flow cytometry. It is filed as functional.
Data set [18] is described as follows: Stability of the compound in PBS in presence of FBS by fluorescence assay. The note with it: cattle, buffer. It is filed as physicochemical.
Data set [19] relates to GES1. The data set is described as follows: Cytotoxicity against human GES-1 cells assessed as effect on cell viability at 10 uM after 48 hrs by MTT assay relative to control. It counts as cell-based. Conditions: ges1, 48 h.
Data set [20] is described as follows: Drug uptake in human SGC7901 cells at 5 uM after 24 hrs by MitoTracker Red CM-H2-XRos/Hoechst 33342 dye based confocal fluorescence microscopic analysis. The note with it: sgc-7901, 24 h. It counts as ADME, cell-based.
A short description of data set [21]: Drug localization in mitochondria of human SGC7901 cells at 5 uM after 24 hrs by MitoTracker Red CM-H2-XRos/Hoechst 33342 dye based confocal fluorescence microscopic analysis. It is filed as ADME.
Data set [22] can be described thus: Stability of the compound in DMEM in presence of FBS up to 96 hrs by fluorescence assay.
Data set [23] concerns SGC-7901. The data set is described as follows: Cytotoxicity against human SGC7901 cells assessed as decrease in cell viability pretreated for 4 hrs followed by DTT addition measured 48 to 72 hrs post dose by MTT assay. It counts as functional, cell-based.
The nature of data set [24]: Drug uptake in human SGC7901 cells at 3 uM after 24 hrs by flow cytometry relative to control. Conditions: sgc-7901, 24 h. It counts as ADME, cell-based.
Data set [25] is described as follows: Drug uptake in human SGC7901 cells at 3 uM after 4 hrs by flow cytometry relative to control. It is filed as ADME, cell-based. Conditions: sgc-7901, 4 h.

With `O=C(Cn1cc(F)c(=O)[nH]c1=O)OCC[n+]1ccc(/C=C/c2c[nH]c3ccccc23)cc1.[Br-]`, the result in [1], in [2], in [9], in [11] and in data set [17] was Active. Further, the Stability was 48 h in data set [3] and 72 h in [18]. In addition, the “fold change (FC)” value in [4] is recorded as 0.597; in data set [5], 0.707; in data set [10] it was 0.561; in data set [19], 0.822. The Drug uptake is on record as 96.5% in [6], 95.8% in [7], 96.6% in data set [13] and “Active” in data set [16]. In addition, the Activity entry in data set [8] is “Non-Toxic”; in data set [12], “Dose-dependent effect”; in data set [14] it was “Dose-dependent effect”; in data set [15], “Dose-dependent effect”.
For `O=C(Cn1cc(F)c(=O)[nH]c1=O)NCC[n+]1ccc(/C=C/c2c[nH]c3ccccc23)cc1.[Br-]`, the figures for the Stability in [3] and in data set [18] were 48 h and 72 h, respectively. Further, the “fold change (FC)” value is 0.888 in data set [4], 0.977 in [5], 1.069 in [10] and 1.055 in data set [19]. The Drug uptake in [6] was 0.8%; in data set [7], 1.6%; in data set [13] it was 1.4%; in data set [20], “Not Active”.
On to `O=c1[nH]cc(F)c(=O)[nH]1` [FLUOROURACIL], for which the “fold change (FC)” value in data set [4] amounted to 0.6; in data set [5] it was 0.986; in data set [10] it was 0.53; in data set [19] it was 0.733. The Activity entry in [8] is “Toxic”.
On to `O=c1[nH]c(=O)n(CCC[n+]2ccc(/C=C/c3c[nH]c4ccccc34)cc2)cc1F.[Br-]`, for which the figures for the Stability in [3] and in data set [18] were 48 h and 72 h, respectively. Besides, the results for the “fold change (FC)” value in [4] and in data set [10] were 1.019 and 1.072, respectively. For the same compound, the Drug uptake in data set [6] was 78%; in data set [7] it was 62.6%; in [13], 80.5%; in data set [20], “Not Active”.
`O=c1[nH]c(=O)n(CCSSCC[n+]2ccc(/C=C/c3c[nH]c4ccccc34)cc2)cc1F.[Br-]`: the Drug uptake entry is given as “Active” in [21], 93.2% in data set [6], 99.6% in data set [7] and 98.8% in [13]. The “fold change (FC)” value in data set [4] worked out at 1.021; in data set [5], 1.108; in data set [10], 0.895; in data set [19] it was 0.978. In addition, the results for the Stability entry in data set [22] and in data set [18] were “Stable” and 72 h, respectively. Moreover, the outcome in [23] was Active.
As to `C[n+]1ccc(/C=C/c2c[nH]c3ccccc23)cc1.[I-]`, the results for the Drug uptake in data set [24] and in [25] were 96.9% and 95.4%, respectively.
